Several values for one entry are separate records, joined by “and”; a condition that tells them apart may be missing. Equal values may be shown once. Read-outs that look alike come from different tables or passages of the source.

The results in this text go back to publication PMC8989888, “Development of optimized drug-like small molecule inhibitors of the SARS-CoV-2 3CL protease for treatment of COVID-19” (Nature Communications, 2022).

In experiment [1] the target is T1, SARS-CoV-2 3CL protease (Severe acute respiratory syndrome coronavirus 2, UniProt P0DTD1). Format: binding.
Experiment [2] deals with SARS-CoV-2. Description: microbe, parasite or virus in culture. The experiment is classed as cell-based.
The target of experiment [3] is T1, SARS-CoV-2 3CL protease. Kind of experiment: biochemical. Particulars: for kinact/KI: read-out: SARS-CoV-2 3CLpro kinact/KI.
Experiment [4] addresses T1, SARS-CoV-2 3CL protease. Kind of experiment: biochemical. Particulars: for % SARS-CoV-2 3CL activity: 200 nM protease, replicates.
The target in experiment [5] is SARS-CoV-2. Kind of experiment: cell-based.
For experiment [6], the system named is SARS-CoV-2. Description: microbe, parasite or virus in culture. Format: cell-based. The source holds these as a separate data set.
Experiment [7] concerns the target T1, SARS-CoV-2 3CL protease. The experiment is classed as binding. The source holds these as a separate data set.
The subject of another experiment is human chymotrypsin. Description: Chymotrypsin activity assay (Panc-1 cell lysate). The experiment is classed as biochemical.
Where [8] appears, read: Severe acute respiratory syndrome coronavirus 2, Vero C1008, read-out: SARS-CoV-2 Vero E6 EC50.
Setting [9] is: 20 nM protease, read-out: SARS-CoV-2 3CLpro IC50.
[10] abbreviates: Concentration of inhibitor (nM) 0.19382.
Setting [11] is: Concentration of inhibitor (nM) 0.49485.
The mark [12] stands for this setting: Concentration of inhibitor (nM) 0.79588.
The mark [13] stands for this setting: Concentration of inhibitor (nM) 1.09691.
The mark [14] stands for this setting: Concentration of inhibitor (nM) 1.39794.
Setting [15] is: Concentration of inhibitor (nM) 1.69897.
Setting [16] is: Concentration of inhibitor (nM) 2.
Where [17] appears, read: Concentration of inhibitor (nM) 2.30103.
[18] abbreviates: Concentration of inhibitor (nM) 2.60206.
Where [19] appears, read: Concentration of inhibitor (nM) -0.10721.
[20] abbreviates: Concentration of inhibitor (nM) -0.40824.

Take `O=C(N[C@@H](CC1CCCCC1)C(=O)N[C@@H](C[C@@H]1CCNC1=O)C(O)S(=O)(=O)O)OCc1cccc(Cl)c1` (stereo partly shown) [EB48]: the “binding to 3CL protease by mass spectrometry (in words)” value (“binding to 3CL protease” below) on SARS-CoV-2 3CL protease [1] is given as “blocked the covalent binding of 10 equivalents of compound 4”. Moreover, the EC50 (commonly the midpoint of the concentration-response curve) in the experiment with SARS-CoV-2 [2] (setting [8]) is 16000 nM. The “observed inactivation rate vs compound concentration (Figure S19, replicate values)” value on SARS-CoV-2 3CL protease [3] was 0.0858 and 0.04 and 0.095 and 0.0226 and 0.0022 and 0.0296 and 0.1194 and 0.0166 and 0.0446 and 0.0488 and 0.0144 and 0.0572 and 0.0269 and -0.02233 and 0.0225 and 0.0208 and 0.0151 and 0.0309. The kinact/KI on SARS-CoV-2 3CL protease [3] is 35000 M⁻¹ s⁻¹. Also, the IC50 – broadly, the midpoint of a concentration-inhibition curve – on SARS-CoV-2 3CL protease [4] (setting [9]) came out at 200 nM. Further, the “normalized activity, dose-response curve (Figure S16)” value (“normalized activity” for short) on SARS-CoV-2 3CL protease [4] (setting [10]) is 110.351 and 97.4198; at SARS-CoV-2 3CL protease [4] (setting [11]), 103.827 and 92.511; on SARS-CoV-2 3CL protease [4] (setting [12]), 102.384 and 88.7351; on SARS-CoV-2 3CL protease [4] (setting [13]) it was 98.7453 and 87.9169; on SARS-CoV-2 3CL protease [4] (setting [14]), 87.2647 and 81.1831; at SARS-CoV-2 3CL protease [4] (setting [15]) it was 80.9285 and 77.1554. Also, the “normalized activity” value is 69.8871 and 61.2964 at SARS-CoV-2 3CL protease [4] (setting [16]); 58.4065 and 46.4443 at SARS-CoV-2 3CL protease [4] (setting [17]); 43.601 and 36.7527 on SARS-CoV-2 3CL protease [4] (setting [18]); 108.281 and 111.58 at SARS-CoV-2 3CL protease [4] (setting [19]); 100 at SARS-CoV-2 3CL protease [4] (setting [20]).
Regarding `CC(C)C[C@H](NC(=O)OCc1ccc2ccccc2c1)C(=O)N[C@@H](C[C@@H]1CCNC1=O)C(O)S(=O)(=O)O` (stereo partly shown) [EB56], the “binding to 3CL protease” value on SARS-CoV-2 3CL protease [1] was “blocked the covalent binding of 10 equivalents of compound 4”. Moreover, the EC50 at SARS-CoV-2 [5] is 800 nM; in the experiment with SARS-CoV-2 [2] (setting [8]), 4000 nM; in the experiment on SARS-CoV-2 [6] (Severe acute respiratory syndrome coronavirus 2, 24 h, read-out: SARS-CoV-2 Huh-7ACE2 EC50), 28 nM. In the experiment on SARS-CoV-2 [6], the “inhibition of SARS-CoV-2 (Figure s17b dose-response, replicate values)” value is 102.227 and 102.618 and 99.1767 and 91.8872 and 92.3176 and 92.3719 and 59.4672 and 57.4366 and 41.3693 and 36.9002 and 26.4205 and 14.778 and 9.09 and 16.3686 and 1.374 and -4.092 and 13.2513 and -12.3171 and 9.345 and 11.9707 and 3.907. Also, the “observed inactivation rate vs compound concentration (Figure S19, replicate values)” value on SARS-CoV-2 3CL protease [3] is 0.0572 and 0.0815 and 0.095 and 0.0426 and 0.0949 and 0.1078 and 0.0732 and 0.0307 and 0.0058 and 0.0365 and 0.0284 and 0.0434 and 0.0176 and 0.0243 and -0.00666 and 0.0205 and 0.0022 and 0.0219 and 0.0071 and 0.0016 and -0.00538. Besides, at SARS-CoV-2 3CL protease [3], the kinact/KI is 18300 M⁻¹ s⁻¹. Besides, the IC50 at SARS-CoV-2 3CL protease [4] (setting [9]) stood at 50 nM. For the same compound, the “normalized activity” value on SARS-CoV-2 3CL protease [4] (setting [10]) was 89.823 and 93.9936; on SARS-CoV-2 3CL protease [4] (setting [11]), 85.2362 and 82.2757; at SARS-CoV-2 3CL protease [4] (setting [12]), 85.487 and 88.0978; on SARS-CoV-2 3CL protease [4] (setting [13]) it was 72.8375 and 72.1422; at SARS-CoV-2 3CL protease [4] (setting [14]), 69.3615 and 64.0723; at SARS-CoV-2 3CL protease [4] (setting [15]) it was 53.5944 and 48.1904. Also, the “normalized activity” value was 29.9078 and 31.2768 on SARS-CoV-2 3CL protease [4] (setting [16]); 3.964 and 3.456 on SARS-CoV-2 3CL protease [4] (setting [18]); 94.804 and 91.5247 on SARS-CoV-2 3CL protease [4] (setting [19]); 100 on SARS-CoV-2 3CL protease [4] (setting [20]).
With `O=C(Oc1cncc(Cl)c1)c1cccs1` [MAC-5576, reference compound], the “binding to 3CL protease” value on SARS-CoV-2 3CL protease [1] is “one-to-one complex”. For the same compound, at SARS-CoV-2 3CL protease [7], the binding stoichiometry came to 1.2 ± 0.2. In the experiment on human chymotrypsin, the Normalized chymotrypsin activity is 1.078 and 0.9826 and 0.9946. In the experiment with SARS-CoV-2 [2], the “% SARS-CoV-2 inhibition” value was -2% and the “EC50, inhibition of SARS-CoV-2 viral replication” value is recorded as “did not”. At SARS-CoV-2 3CL protease [4] (IC50), this compound came in with a concentration for half-maximal inhibition (IC50) of 93 nM. For the same compound, the IC50 against SARS-CoV-2 3CL protease [4] (SARS-CoV-2 3CLpro IC50) stood at 10 nM.
Regarding `O=C(N[C@@H](CC1CCCCC1)C(=O)N[C@@H](C[C@@H]1CCNC1=O)C(O)S(=O)(=O)O)OCc1ccccc1` (stereo partly shown) [SL-4-241], the “binding to 3CL protease” value at SARS-CoV-2 3CL protease [1] is listed as “blocked the covalent binding of 10 equivalents of compound 4”. The EC50 in the experiment with SARS-CoV-2 [2] (setting [8]) stood at 17000 nM. In addition, at SARS-CoV-2 3CL protease [3], the “observed inactivation rate vs compound concentration (Figure S19, replicate values)” value is 0.0986 and 0.0638 and 0.0852 and 0.1375 and 0.0874 and 0.0292 and 0.1342 and 0.0676 and 0.0349 and 0.0089 and 0.0058 and 0.057 and 0.065 and 0.0135 and 0.036 and 0.0158 and 0.0274 and 0.003 and 0.0091 and 0.01 and -0.00355. Also, the kinact/KI on SARS-CoV-2 3CL protease [3] was 23300 M⁻¹ s⁻¹. The IC50 on SARS-CoV-2 3CL protease [4] (setting [9]) is 75 nM. For the same compound, the “normalized activity” value was 94.2892 and 94.3168 on SARS-CoV-2 3CL protease [4] (setting [10]); 87.5254 and 99.9152 on SARS-CoV-2 3CL protease [4] (setting [11]); 89.3075 and 94.6561 on SARS-CoV-2 3CL protease [4] (setting [12]); 90.077 and 87.1492 at SARS-CoV-2 3CL protease [4] (setting [13]); 78.3315 and 75.5284 on SARS-CoV-2 3CL protease [4] (setting [14]); 69.502 and 62.8473 at SARS-CoV-2 3CL protease [4] (setting [15]). Moreover, the “normalized activity” value on SARS-CoV-2 3CL protease [4] (setting [16]) is 41.1102 and 41.9808; on SARS-CoV-2 3CL protease [4] (setting [17]), 10.8147 and 10.0871; at SARS-CoV-2 3CL protease [4] (setting [18]), 3.241 and 2.3258; on SARS-CoV-2 3CL protease [4] (setting [19]) it was 98.5824 and 101.484; on SARS-CoV-2 3CL protease [4] (setting [20]), 100.
With `O=c1c2ccccc2[se]n1-c1ccccc1` [ebselen, reference compound], the “binding to 3CL protease” value at SARS-CoV-2 3CL protease [1] is “binding of multiple ebselen molecules to each 3CL protease molecule”. Also, at SARS-CoV-2 3CL protease [7] (ITC), the binding stoichiometry result was “didn’t reach saturation until a high molar ratio”. Further, the Normalized chymotrypsin activity with human chymotrypsin (10µM compound, 100 µg Panc-1 cell lysate, replicates) was 0.8849 and 0.7812 and 0.7681. For the same compound, in the experiment with SARS-CoV-2 [2] (Severe acute respiratory syndrome coronavirus 2, Vero C1008, 72 h, read-out: EC50, inhibition of SARS-CoV-2 viral replication), the EC50 was 800 nM. Moreover, the “% SARS-CoV-2 3CL activity” value is 89.3778% and 107.442% and 103.181% on SARS-CoV-2 3CL protease [4] (log10[nM] 0.404879); 94.9547% and 93.3775% and 98.4402% at SARS-CoV-2 3CL protease [4] (log10[nM] 0.882); 94.2663% and 88.5936% and 99.7037% on SARS-CoV-2 3CL protease [4] (log10[nM] 1.35912); 88.0185% and 85.2126% and 81.8055% on SARS-CoV-2 3CL protease [4] (log10[nM] 1.83624); 61.5633% and 42.9069% and 50.6187% on SARS-CoV-2 3CL protease [4] (log10[nM] 2.31336); 10.2823% and 8.339% and 9.272% at SARS-CoV-2 3CL protease [4] (log10[nM] 2.79048). Also, the “% SARS-CoV-2 3CL activity” value at SARS-CoV-2 3CL protease [4] (log10[nM] 3.26761) is 7.59% and 9.629% and 7.886%; on SARS-CoV-2 3CL protease [4] (log10[nM] 3.74473) it was 6.213% and 7.476% and 5.15%; on SARS-CoV-2 3CL protease [4] (log10[nM] 4.22185), 3.895% and 5.307% and 2.98%; at SARS-CoV-2 3CL protease [4] (log10[nM] 4.69897), -2.597% and 1.403% and 1.1938%; at SARS-CoV-2 3CL protease [4] (log10[nM] -0.0722425) it was 107.261% and 104.787% and 112.511%; at SARS-CoV-2 3CL protease [4] (log10[nM] -0.549364), 92.7537% and 98.0597% and 109.187%.
